Results: patent US20210290527A1, “Compositions and Methods for Treatment of Ocular Conditions” (EyeGate Pharmaceuticals, Inc., priority 2020, published 2021)
Where two headings read alike, the source gives them in different places. Blank lines part the entries; values can stand above or below the molecule they belong to.

Tests used:
[1] = Protocol: (§1) RI was measured with a refractometer and pH was measured with a pH meter.
[2] = Rheological testing, parallel plate rheometer: viscosity and shear-thinning; type: physicochemical
Protocol: Thiol-modified carboxymethyl HA (CMHA-S) was synthesized as described in Lawyer et al. and Wendling et al., with a thiol modification of 0.1, 0.2, 0.4, or 0.7 μmol thiol/mg. Hydrogels were created by dissolving CMHA-S in phosphate-buffered saline (PBS; pH 7.4). The CMHA-S was disulfide crosslinked under continuous mixing with the addition of sodium hypochlorite. Rheological testing was performed using a parallel plate format rheometer with a 25 mm-diameter stainless steel geometry. Samples (5-6 ml) of hydrogel were placed in a 35 mm Petri dish, and the geometry was lowered to a gap of 5 mm. To determine viscosity and shear-thinning, the shear rate was varied from 0.1 to 10 Hz. A decreasing viscosity as shear rate increases indicates shear-thinning behavior.
Viscosity was determined as described in Example 1.

[3] = in water; cited from earlier work
[4] = pH measured with a pH meter; type: physicochemical
Protocol: as §1

[5] = Release of therapeutic from hydrogel in medi-dialysis chamber into PBS; type: physicochemical; settings: therapeutic at 1 mg/ml, over 24 hours, dialysis chamber MWCO 50 kDa, UV spectroscopy
Protocol: FIGS. 3A, 3B, 3C, and 3D show the release of therapeutic from hydrogel (“OBG”; blue circles on the graphs) or PBS (green circles on the graphs) into PBS in a medi-dialysis chamber (MWCO, 50 kDa) over time.
The release was monitored over 24 hours and compared to release of the therapeutic from solution in PBS. For this assessment, a 0.5 ml sample of hydrogel plus therapeutic or PBS plus therapeutic was placed into a medi-dialysis chamber, and the chamber was placed in a beaker containing 100 ml of PBS. The remaining amount of therapeutic in the dialysis chamber was monitored using UV spectroscopy at various time points.

[6] = drug incorporated at 1 mg/ml in CMHA-S hydrogel
[7] = LE 2.5 mg/ml in CMHA-S hydrogel
[8] = PredA 1 mg/ml in CMHA-S hydrogel
[9] = PredA 5 mg/ml in CMHA-S hydrogel
[10] = PredA 10 mg/ml in CMHA-S hydrogel

RI [1, 6]: 1.3353
Viscosity at 2.5 Hz [2, 6]: 1.1 Pa · s
pH [4, 6]: 7.3
SMILES: CN(C)CC/C=C1/c2ccccc2COc2ccc(CC(=O)O)cc21 [Olopatadine, olopatadine]
water solubility [3]: about 0.03 mg/ml

RI ([1]; LE 1 mg/ml in CMHA-S hydrogel): 1.3355
RI [1, 7]: 1.3354
RI ([1]; LE 5 mg/ml in CMHA-S hydrogel): 1.3353
Viscosity at 2.5 Hz ([2]; LE 1 mg/ml in CMHA-S hydrogel): 2.3 Pa · s
Viscosity at 2.5 Hz [2, 7]: 2.7 Pa · s
Viscosity at 2.5 Hz ([2]; LE 5 mg/ml in CMHA-S hydrogel): 3.3 Pa · s
release from the hydrogel compared to release from PBS [5]: reduced compared to its release from PBS
pH ([4]; LE 1 mg/ml in CMHA-S hydrogel): 7.11
pH [4, 7]: 7.24
pH ([4]; LE 5 mg/ml in CMHA-S hydrogel): 7.55
SMILES: CCOC(=O)O[C@]1(C(=O)OCCl)CC[C@H]2[C@@H]3CCC4=CC(=O)C=C[C@]4(C)[C@H]3[C@@H](O)C[C@@]21C [LE, loteprednol etabonate]
water solubility [3]: less than 0.001 mg/ml

SMILES: C[C@@H]1C[C@H]2[C@@H]3CCC4=CC(=O)C=C[C@]4(C)[C@@]3(F)[C@@H](O)C[C@]2(C)[C@@]1(O)C(=O)CO [Dexamethasone, dexamethasone]
water solubility [3]: less than 0.09 mg/ml

Viscosity at 2.5 Hz [2, 8]: 2.0 Pa · s
Viscosity at 2.5 Hz [2, 9]: 2.7 Pa · s
Viscosity at 2.5 Hz [2, 10]: 3.0 Pa · s
pH [4, 8]: 7.09
pH [4, 9]: 7.13
pH [4, 10]: 7.17
SMILES: CC(=O)OCC(=O)[C@@]1(O)CC[C@H]2[C@@H]3CCC4=CC(=O)C=C[C@]4(C)[C@H]3[C@@H](O)C[C@@]21C [PredA, prednisolone acetate]
